Measured values taken from ChEMBL document CHEMBL1201862, “PubChem BioAssay data set” (2004).
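1) Cells in 96-well plates. 2) Compound, 48 h, 5 concentrations. 3) Linear interpolation between surrounding doses. 4) Unreached endpoint = highest concentration. GI50 is the concentration that inhibits growth by half.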 Active and inactive are the calls of the source. No stated cut-off is given here; in the data, active = GI50 up to about 1.1 µM and inactive = higher.

Assays:
Assay in all cases: DTP human tumour cell line panel, 48 h
[1] = system: RXF 393
[2] = system: SK-MEL-5
[3] = system: Malme-3M
[4] = system: SNB-75
[5] = system: COLO 205
[6] = system: NCI-H226
[7] = system: DLD-1
[8] = system: OVCAR-4
[9] = system: SR
[10] = system: NCI-H23
[11] = system: OVCAR-3
[12] = system: IGROV-1
[13] = system: SN12C
[14] = system: RPMI-8226
[15] = system: A498
[16] = system: SF-295
[17] = system: HOP-62
[18] = system: 786-0
[19] = system: SF-539
[20] = system: DU-145

| SMILES | GI50 [1] | GI50 [2] | GI50 [3] | GI50 [4] | GI50 [5] | GI50 [6] | GI50 [7] | GI50 [8] | GI50 [9] | GI50 [10] | GI50 [11] | GI50 [12] | GI50 [13] | GI50 [14] | GI50 [15] | GI50 [16] | GI50 [17] | GI50 [18] | GI50 [19] | GI50 [20] |
| --- | --- | --- | --- | --- | --- | --- | --- | --- | --- | --- | --- | --- | --- | --- | --- | --- | --- | --- | --- | --- |
| Fc1cccc(Cl)c1C1SCc2nc3ccccc3n21 (stereo not drawn) | 31.6 µM (inactive) | 15.4 µM (inactive) | 14.8 µM (inactive) | 38.5 µM (inactive) | 22.8 µM (inactive) | 36.6 µM (inactive) | 28.8 µM (inactive) | 31.6 µM (inactive) | 17.3 µM (inactive) | 24.3 µM (inactive) | 21.9 µM (inactive) | 29.1 µM (inactive) | 41.4 µM (inactive) | 17.1 µM (inactive) | 83.2 µM (inactive) | 23.7 µM (inactive) | 33.2 µM (inactive) | 45.7 µM (inactive) | 22.8 µM (inactive) | – |
| COC(=O)C(=O)C(C(=O)C(=O)Nc1ccc([N+](=O)[O-])cc1[N+](=O)[O-])c1nc2ccc([N+](=O)[O-])cc2nc1O (stereo not drawn) | 43.3 µM (inactive) | – | > 100 µM (inactive) | 14.6 µM (inactive) | > 100 µM (inactive) | > 100 µM (inactive) | > 100 µM (inactive) | > 100 µM (inactive) | 43 µM (inactive) | > 100 µM (inactive) | > 100 µM (inactive) | > 100 µM (inactive) | > 100 µM (inactive) | > 100 µM (inactive) | 76.9 µM (inactive) | > 100 µM (inactive) | > 100 µM (inactive) | > 100 µM (inactive) | – | – |
| COc1ccc(Sc2ccccc2[N+](=O)[O-])cc1 | 10.2 µM (inactive) | 45.9 µM (inactive) | 13 µM (inactive) | 3.67 µM (inactive) | 5.69 µM (inactive) | 13 µM (inactive) | 24.8 µM (inactive) | 65.3 µM (inactive) | 17.1 µM (inactive) | 31.2 µM (inactive) | 12.4 µM (inactive) | 69.8 µM (inactive) | 21.2 µM (inactive) | 25.5 µM (inactive) | 50.7 µM (inactive) | > 10 µM (inactive) | 16.6 µM (inactive) | – | 26 µM (inactive) | – |
| CN(C(=O)c1ccc(Cl)cc1)C(=S)N1CCN(c2ccccn2)CC1 | > 100 µM (inactive) | > 100 µM (inactive) | > 100 µM (inactive) | > 100 µM (inactive) | > 100 µM (inactive) | 37.2 µM (inactive) | > 100 µM (inactive) | > 100 µM (inactive) | > 100 µM (inactive) | > 100 µM (inactive) | > 100 µM (inactive) | > 100 µM (inactive) | > 100 µM (inactive) | > 100 µM (inactive) | – | > 100 µM (inactive) | > 100 µM (inactive) | > 100 µM (inactive) | > 100 µM (inactive) | – |
| COc1cc(OC)c2c(O)cc(CC(C)O)cc2c1 (stereo not drawn) | > 100 µM (inactive) | > 100 µM (inactive) | > 100 µM (inactive) | > 100 µM (inactive) | > 100 µM (inactive) | – | > 100 µM (inactive) | > 100 µM (inactive) | > 100 µM (inactive) | > 100 µM (inactive) | > 100 µM (inactive) | > 100 µM (inactive) | > 100 µM (inactive) | > 100 µM (inactive) | > 100 µM (inactive) | > 100 µM (inactive) | > 100 µM (inactive) | > 100 µM (inactive) | > 100 µM (inactive) | – |
| CN1CCCS/C1=C1/SC(=S)N(c2ccccc2)C1=O | > 100 µM (inactive) | > 100 µM (inactive) | > 100 µM (inactive) | > 100 µM (inactive) | > 100 µM (inactive) | > 100 µM (inactive) | > 100 µM (inactive) | > 100 µM (inactive) | > 100 µM (inactive) | > 100 µM (inactive) | > 100 µM (inactive) | > 100 µM (inactive) | > 100 µM (inactive) | > 100 µM (inactive) | > 100 µM (inactive) | > 100 µM (inactive) | > 100 µM (inactive) | > 100 µM (inactive) | > 100 µM (inactive) | – |
| O=Cc1cc2c(cc1-c1cc3c(cc1C=O)OCO3)OCO2 | 37.3 µM (inactive) | > 100 µM (inactive) | > 100 µM (inactive) | > 100 µM (inactive) | 39.5 µM (inactive) | > 100 µM (inactive) | 50.4 µM (inactive) | > 100 µM (inactive) | 21 µM (inactive) | 72.4 µM (inactive) | 55.6 µM (inactive) | > 100 µM (inactive) | > 100 µM (inactive) | 30.3 µM (inactive) | > 100 µM (inactive) | > 100 µM (inactive) | > 100 µM (inactive) | > 100 µM (inactive) | > 100 µM (inactive) | – |
| CN(C)CC1CCCCCCCCCC(CN(C)C)C1=O (stereo not drawn) | 8.77 µM (inactive) | 17.3 µM (inactive) | > 35.2 µM (inactive) | 17.1 µM (inactive) | > 38.1 µM (inactive) | > 43 µM (inactive) | > 100 µM (inactive) | – | 17.6 µM (inactive) | > 27.6 µM (inactive) | > 20.3 µM (inactive) | > 39.9 µM (inactive) | > 25.4 µM (inactive) | > 22 µM (inactive) | > 28.4 µM (inactive) | > 42.1 µM (inactive) | > 44 µM (inactive) | > 20.6 µM (inactive) | > 27.7 µM (inactive) | 12.9 µM (inactive) |
| N=C(NC(=N)Nc1ccc(S(=O)(=O)Nc2cnc3ccccc3n2)cc1)Nc1ccc(Br)cc1 | – | > 100 µM (inactive) | > 100 µM (inactive) | 40.6 µM (inactive) | > 100 µM (inactive) | > 100 µM (inactive) | > 100 µM (inactive) | > 100 µM (inactive) | > 100 µM (inactive) | > 100 µM (inactive) | > 100 µM (inactive) | > 100 µM (inactive) | > 100 µM (inactive) | > 100 µM (inactive) | > 100 µM (inactive) | > 100 µM (inactive) | > 100 µM (inactive) | > 100 µM (inactive) | > 100 µM (inactive) | – |
| COc1ccc(C(c2ccccc2)(c2ccc(OC)cc2)N2C(=O)NC3C(CCCCC(=O)NCCCCCCOP(OCCC#N)N(C(C)C)C(C)C)SCC32)cc1 (stereo not drawn) | 11.7 µM (inactive) | 15.3 µM (inactive) | 17.8 µM (inactive) | – | 21.6 µM (inactive) | 15 µM (inactive) | 14.8 µM (inactive) | 17.9 µM (inactive) | 8.07 µM (inactive) | 17 µM (inactive) | 14.8 µM (inactive) | 18.7 µM (inactive) | – | 8.34 µM (inactive) | 17.2 µM (inactive) | 17.1 µM (inactive) | 17.6 µM (inactive) | 18.1 µM (inactive) | 14.5 µM (inactive) | – |
| Cn1cc2ccccc2c1-c1nc(F)nc(Nc2ccc(N)cc2)n1 | 15.3 µM (inactive) | 11.5 µM (inactive) | 14.4 µM (inactive) | 11.9 µM (inactive) | > 10 µM (inactive) | 16.5 µM (inactive) | 13 µM (inactive) | 23.1 µM (inactive) | 16.8 µM (inactive) | 15.8 µM (inactive) | 20.8 µM (inactive) | 12.7 µM (inactive) | 17.2 µM (inactive) | 13.3 µM (inactive) | 6.93 µM (inactive) | 16.2 µM (inactive) | 16.6 µM (inactive) | 22.3 µM (inactive) | 15.8 µM (inactive) | – |
| NC1=NC(c2ccccc2)CC(c2cc(Cl)cc(Br)c2O)=N1 (stereo not drawn) | 4.36 µM (inactive) | 11.7 µM (inactive) | 4.55 µM (inactive) | 14 µM (inactive) | 13 µM (inactive) | 18.9 µM (inactive) | 12 µM (inactive) | 15.4 µM (inactive) | 6.43 µM (inactive) | 10.8 µM (inactive) | 15.8 µM (inactive) | 14.5 µM (inactive) | 13.4 µM (inactive) | 7.31 µM (inactive) | 16.4 µM (inactive) | 10.9 µM (inactive) | 10.4 µM (inactive) | 16.9 µM (inactive) | 12.2 µM (inactive) | – |
| O=C(CC(=O)N1N=C(c2ccccc2)C(/N=N/c2ccccc2Cl)C1=O)Nc1ccccc1Cl (stereo not drawn) | – | 17.1 µM (inactive) | – | 21.1 µM (inactive) | 31.6 µM (inactive) | 42.7 µM (inactive) | 23 µM (inactive) | 20.7 µM (inactive) | 19.3 µM (inactive) | 39.8 µM (inactive) | 28.1 µM (inactive) | 63.1 µM (inactive) | 58.5 µM (inactive) | 17.3 µM (inactive) | > 10 µM (inactive) | 27.4 µM (inactive) | 33 µM (inactive) | 20.8 µM (inactive) | 29.9 µM (inactive) | – |
| COc1cccc2c1C(=O)c1c(O)c3c(c(O)c1C2=O)C[C@@](O)(C(=O)CO)CC3OC1CC(NCCCC(OC(C)=O)OC(C)=O)C(O)C(C)O1 (stereo partly drawn) | 0.00172 µM (active) | – | 0.00209 µM (active) | 0.0015 µM (active) | – | 0.00153 µM (active) | 0.0023 µM (active) | 0.00151 µM (active) | < 0.0001 µM (active) | 0.00182 µM (active) | 0.0045 µM (active) | 0.006 µM (active) | 0.00152 µM (active) | 0.00322 µM (active) | 0.0019 µM (active) | 0.00147 µM (active) | 0.00165 µM (active) | 0.00219 µM (active) | 0.00229 µM (active) | – |
| COc1ccc(/C=C\c2cc(OC)c(OC)c(OC)c2)c(O)c1O [COMBRETASTATIN A-1] | – | 0.05 µM (active) | 0.678 µM (active) | 1.31 µM (inactive) | 6.65 µM (inactive) | – | 0.123 µM (active) | 2.2 µM (inactive) | 2.07 µM (inactive) | – | – | 1.57 µM (inactive) | 0.256 µM (active) | 0.0757 µM (active) | – | 0.05 µM (active) | 0.0893 µM (active) | 0.69 µM (active) | – | 0.0127 µM (active) |
